Like-named read-outs stand apart in the source and are kept apart here.
How the values were obtained:
A549 lung cancer cells = tested on: A549 lung cancer cells
Excerpt: The tumor has been grown after injecting A549 lung cancer cells to the nude mouse. […] The tumor growth has been observed for 27 days.
The tumor volume and shape in the nude mouse have been observed for 27 days.

[1] = Procedure: Chemical name (IUPAC) of AGM-130 is (2′Z 3′E)-5′-hydroxy-5-nitro indirubin oxime. […] For the practical formulation of injectable aqueous solution, AGM-130 in PEG300 solution is diluted with 0.1 N Na2CO3 in saline solution to 70% aqueous solution with final concentration of 3.75 mg/mL.
[2] = tested on: triple negative cell lines; details: 7 of 10 types of triple negative cell lines
[3] = tested on: MDA-MB-231 triple negative breast cancer cells
Excerpt: After implanting MDA-MB-231 triple negative breast cancer cells to the nude mouse, the tumor has been grown to the 200 mm^3 volume. […] The tumor growth has been observed for 27 days.

OVCAR-3 = details: 10 μM; ovarian cancer cell line OVCAR-3
Excerpt: (§1) If the growth percent is 0%, it means that no further growth of cancer cells occurs, which is an ideal case.

SW-620 = details: 10 μM; colorectal cancer cell line SW-620
Excerpt: as §1

U251 = details: 10 μM; CNS cancer cell line U251
Excerpt: as §1

OVCAR-5 = details: 10 μM; ovarian cancer cell line OVCAR-5
Excerpt: as §1

T-47D = details: 10 μM; breast cancer cell line T-47D
Excerpt: as §1

NCI-H460 = details: 10 μM; non-small cell lung cancer cell line NCI-H460
Excerpt: as §1

TK-10 = details: 10 μM; renal cell carcinoma cell line TK-10
Excerpt: as §1

DU-145 = details: 10 μM; prostate cancer cell line DU-145
Excerpt: as §1

SF-295 = details: 10 μM; CNS cancer cell line SF-295
Excerpt: as §1

HOP-92 = details: 10 μM; non-small cell lung cancer cell line HOP-92
Excerpt: as §1

UACC-62 = details: 10 μM; malignant melanoma cell line UACC-62
Excerpt: as §1

SN12C = details: 10 μM; renal cell carcinoma cell line SN12C
Excerpt: as §1

ACHN = details: 10 μM; renal cell carcinoma cell line ACHN
Excerpt: as §1

MCF-7 = details: 10 μM; breast cancer cell line MCF-7
Excerpt: as §1

HCT-15 = details: 10 μM; colorectal cancer cell line HCT-15
Excerpt: as §1

KM12 = details: 10 μM; colorectal cancer cell line KM12
Excerpt: as §1

[4] = tested on: LDH (Lactate dehydrogenase)
Excerpt: Further, we have analyzed the secretion of LDH (Lactate dehydrogenase) enzyme to media as a representative necrosis biomarker.

[5] = tested on: A549 human non-small cell lung cancer cells; details: cited from earlier work
[6] = tested on: Her2 positive breast cancer cell lines; details: 4 types of Her2 positive breast cancer cell lines
[7] = tested on: ER positive breast cancer cell lines; details: 3 types of ER positive breast cancer cell lines
[8] = tested on: KB oral cavity cancer cells
Procedure: The tumor has been grown after injecting KB oral cavity cancer cells (10×10^6 cells/0.1 ml of non-serum matrigel medium) to the nude mouse. […] The tumor growth has been observed for 28 days.
The tumor volume and shape in the nude mouse have been observed for 28 days.

[9] = tested on: TAMR-MCF-7 tamoxifen resistant breast cancer cells; assay: TAMR-MCF-7 tamoxifen resistant breast cancer xenografted model, intraperitoneal
[10] = tested on: transplanted A549 cell tumor; details: in vivo; cited from earlier work

## O=C1Nc2ccc([N+](=O)[O-])cc2C1=C1Nc2ccc(O)cc2C1=NO [AGM-130, (2′Z 3′E)-5′-hydroxy-5-nitro indirubin oxime]
A549 lung cancer cells; 10/20/40 mg/kg intraperitoneally every other day, FIG. 14
  volume of tumor: cannot be reduced significantly
A549 lung cancer cells; 10/20/40 mg/kg intraperitoneally, FIG. 15a
  weight of tumor: cannot be reduced significantly
A549 lung cancer cells; paraffin embedded tumor region, compared to vehicle, FIG. 15b
  apoptosis in tumor (TUNEL assay): induces the apoptosis
[1]; in DMF and DMSO
  solubility: soluble
[1]; in ethanol and acetone
  solubility: very difficult to dissolve
[1]; in water
  solubility: practically insoluble
[2]
  IC50: < 1000 nM
[3]; 10 mg/kg intraperitoneally
  tumor volume reduction compared to control group: about 40%
[3]; 10 mg/kg intraperitoneally twice a week, day 0
  volume of tumor, Mean ± S.E.: 268.0 ± 6.1
[3]; 10 mg/kg intraperitoneally twice a week, day 3
  volume of tumor, Mean ± S.E.: 369.7 ± 5.0
[3]; 10 mg/kg intraperitoneally twice a week, day 6
  volume of tumor, Mean ± S.E.: 474.3 ± 6.6
[3]; 10 mg/kg intraperitoneally twice a week, day 9
  volume of tumor, Mean ± S.E.: 634.9 ± 36.2
[3]; 10 mg/kg intraperitoneally twice a week, day 12
  volume of tumor, Mean ± S.E.: 813.5 ± 29.0
[3]; 10 mg/kg intraperitoneally twice a week, day 15
  volume of tumor, Mean ± S.E.: 985.6 ± 44.8
[3]; 10 mg/kg intraperitoneally twice a week, day 18
  volume of tumor, Mean ± S.E.: 1095.7 ± 54.2
[3]; 10 mg/kg intraperitoneally twice a week, day 21
  volume of tumor, Mean ± S.E.: 1119.8 ± 57.7
[3]; 10 mg/kg intraperitoneally twice a week, day 24
  volume of tumor, Mean ± S.E.: 1242.1 ± 76.0
[3]; 10 mg/kg intraperitoneally twice a week, day 27
  volume of tumor, Mean ± S.E.: 1484.9 ± 86.8
[3]; 20 mg/kg intraperitoneally
  tumor volume reduction compared to control group: about 64%
[3]; 20 mg/kg intraperitoneally twice a week, day 0
  volume of tumor, Mean ± S.E.: 248.0 ± 11.0
[3]; 20 mg/kg intraperitoneally twice a week, day 3
  volume of tumor, Mean ± S.E.: 295.4 ± 22.0
[3]; 20 mg/kg intraperitoneally twice a week, day 6
  volume of tumor, Mean ± S.E.: 364.9 ± 23.5
[3]; 20 mg/kg intraperitoneally twice a week, day 9
  volume of tumor, Mean ± S.E.: 457.4 ± 47.3
[3]; 20 mg/kg intraperitoneally twice a week, day 12
  volume of tumor, Mean ± S.E.: 559.5 ± 56.2
[3]; 20 mg/kg intraperitoneally twice a week, day 15
  volume of tumor, Mean ± S.E.: 623.4 ± 51.5
[3]; 20 mg/kg intraperitoneally twice a week, day 18
  volume of tumor, Mean ± S.E.: 668.5 ± 56.8
[3]; 20 mg/kg intraperitoneally twice a week, day 21
  volume of tumor, Mean ± S.E.: 767.2 ± 106.7
[3]; 20 mg/kg intraperitoneally twice a week, day 24
  volume of tumor, Mean ± S.E.: 833.1 ± 139.7
[3]; 20 mg/kg intraperitoneally twice a week, day 27
  volume of tumor, Mean ± S.E.: 894.2 ± 151.6
[3]; 40 mg/kg intraperitoneally
  tumor volume reduction compared to control group: about 70%
[3]; 40 mg/kg intraperitoneally twice a week, day 0
  volume of tumor, Mean ± S.E.: 253.1 ± 8.5
[3]; 40 mg/kg intraperitoneally twice a week, day 3
  volume of tumor, Mean ± S.E.: 313.3 ± 9.7
[3]; 40 mg/kg intraperitoneally twice a week, day 6
  volume of tumor, Mean ± S.E.: 327.5 ± 19.1
[3]; 40 mg/kg intraperitoneally twice a week, day 9
  volume of tumor, Mean ± S.E.: 372.4 ± 8.3
[3]; 40 mg/kg intraperitoneally twice a week, day 12
  volume of tumor, Mean ± S.E.: 444.8 ± 7.3
[3]; 40 mg/kg intraperitoneally twice a week, day 15
  volume of tumor, Mean ± S.E.: 481.9 ± 39.1
[3]; 40 mg/kg intraperitoneally twice a week, day 18
  volume of tumor, Mean ± S.E.: 532.7 ± 27.6
[3]; 40 mg/kg intraperitoneally twice a week, day 21
  volume of tumor, Mean ± S.E.: 620.1 ± 45.2
[3]; 40 mg/kg intraperitoneally twice a week, day 24
  volume of tumor, Mean ± S.E.: 686.2 ± 85.6
[3]; 40 mg/kg intraperitoneally twice a week, day 27
  volume of tumor, Mean ± S.E.: 730.8 ± 73.9
[3]; control group paclitaxel (5 mg/kg)
  tumor volume reduction compared to control group: about 14%
OVCAR-3
  Growth percent: 4.31%
SW-620
  Growth percent: 3.18%
U251
  Growth percent: 0.60%
OVCAR-5
  Growth percent: 11.33%
T-47D
  Growth percent: 16.80%
NCI-H460
  Growth percent: −28.47%
TK-10
  Growth percent: 49.89%
DU-145
  Growth percent: 6.72%
SF-295
  Growth percent: 20.93%
HOP-92
  Growth percent: −3.09%
UACC-62
  Growth percent: −34.39%
SN12C
  Growth percent: 23.68%
ACHN
  Growth percent: −25.79%
MCF-7
  Growth percent: 2.75%
HCT-15
  Growth percent: 10.28%
KM12
  Growth percent: −32.96%
[4]
  apoptosis and necrosis (LDH secretion): apoptosis and necrosis have been induced at the same time
[5]
  cell cycle: arrests the cell cycle of G2/M phase
  proliferation: significantly inhibits the proliferation
[6]
  IC50: > 3000 nM
[7]
  IC50: < 1000 nM
[8]; 5/10/20 mg/kg intraperitoneally every other day, FIG. 11
  volume of tumor: cannot be reduced significantly
[8]; paclitaxel 10 mg/kg positive control
  reduction of volume of tumor compared to paclitaxel: cannot result in significant reduction
[9]; 10 mg/kg and 40 mg/kg, FIG. 8
  reduction of tumor volume: significantly observed
[9]; 10 mg/kg intraperitoneally twice a week
  tumor volume reduction compared to control group: about 54%
[9]; 40 mg/kg intraperitoneally twice a week
  tumor volume reduction compared to control group: about 45%
[9]; 10/40 mg/kg
  weight of mouse compared to control group: changed significantly
[10]
  tumor growth: dose-dependently suppresses

Source: US10285979B2, “Breast cancer therapeutic agent containing 5′-hydroxy-5-nitro-indirubin-3′-oxime as active ingredient” (ANYGEN CO., LTD., priority 2016, dated 2019)
